Our source for the Activity, IC50 and Ratio values is ChEMBL document CHEMBL4385662, “Anti-tubercular activity of novel 4-anilinoquinolines and 4-anilinoquinazolines” (Bioorg Med Chem Lett, 2019).

Experiment [1] concerns Mycobacterium tuberculosis. The experiment is described as follows: Anti-tubercular activity against Mycobacterium tuberculosis H37Rv expressing LuxABCDE assessed as luminescence signal at 2.5 uM by luminescence based assay relative to untreated control. The format is functional.
A further experiment is described as follows: cells. The format is ADME, cell-based. Conditions: Homo sapiens, WS1, 48 h.
In experiment [2] the test system is Mycobacterium tuberculosis. The experiment is described as follows: Anti-tubercular activity against Mycobacterium tuberculosis H37Rv expressing LuxABCDE assessed as luminescence signal at 1.3 uM by luminescence based assay relative to untreated control. The format is functional.
In experiment [3] the test system is Mycobacterium tuberculosis. The experiment in a line: Anti-tubercular activity against Mycobacterium tuberculosis H37Rv expressing LuxABCDE assessed as relative luminescence by measuring ratio of RLU (test compound)/RLU(no compound) at 5 uM by luminescence based assay. The format is functional.
Experiment [4] concerns Mycobacterium tuberculosis. The experiment is described as follows: Anti-tubercular activity against Mycobacterium tuberculosis H37Rv expressing LuxABCDE assessed as relative luminescence by measuring ratio of RLU (test compound)/RLU(no compound) at 10 uM by luminescence based assay. The format is functional.
Experiment [5] has as its system Mycobacterium tuberculosis. The experiment in a line: Anti-tubercular activity against Mycobacterium tuberculosis H37Rv expressing LuxABCDE assessed as relative luminescence by measuring ratio of RLU (test compound)/RLU(no compound) at 20 uM by luminescence based assay. The format is functional.
For experiment [6], the system named is Mycobacterium tuberculosis. The experiment is described as follows: Anti-tubercular activity against Mycobacterium tuberculosis H37Rv expressing LuxABCDE assessed as relative luminescence by measuring ratio of RLU (test compound)/RLU(no compound) at 2.5 uM by luminescence based assay. The format is functional.
Experiment [7] relates to Mycobacterium tuberculosis. The experiment in a line: Anti-tubercular activity against Mycobacterium tuberculosis H37Rv expressing LuxABCDE assessed as relative luminescence by measuring ratio of RLU (test compound)/RLU(no compound) at 1.25 uM by luminescence based assay. The format is functional.
The test system of experiment [8] is Mycobacterium tuberculosis. The experiment in a line: Anti-tubercular activity against Mycobacterium tuberculosis H37Rv expressing LuxABCDE assessed as relative luminescence by measuring ratio of RLU (test compound)/RLU(no compound) at 0.625 uM by luminescence based assay. The format is functional, organism-based.

Active and inactive are the calls of the source. The calls are words filed in the database; no cut-off is given here.
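Wherever IC50 is given: cell viability loss read out with alamar blue dye, IC50 being the concentration cutting viability by half.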

Description for cells: Cytotoxicity in human WS1 cells assessed as reduction in cell viability incubated fro 48 hrs by alamar blue dye based assay

Broadly, the IC50 is the concentration that inhibits the measured activity by half. On to `COc1cc2ncc(C#N)c(Nc3cccc(Br)c3)c2cc1OC`, for which the Activity in experiment [1] and in [2] was above 95% each time. Also, it took 11 µM to reach half-maximal inhibition in the experiment “cells” (IC50). Further, the results for the Ratio in experiment [3], in [4] and in experiment [5] were 0.88, 0.56 and 0.37, respectively.

Turning to `C#Cc1cccc(Nc2ccnc3cc(OC)c(OC)cc23)c1`, the Activity in experiment [1] and in experiment [2] was above 95% throughout. Moreover, the IC50 in “cells” is above 100 µM. Further, the results for the Ratio in experiment [3], in experiment [4] and in experiment [5] were 1.02, 0.89 and 0.67, respectively.

`COc1cc2nccc(Nc3ccc(NC(C)=O)cc3)c2cc1OC`: in the experiment “cells”, the IC50 was determined as 9.7 µM. Moreover, the Ratio in experiment [6] was found to be 1.1; in [3], 1.11; in experiment [4], 1.07; in experiment [5], 1.02; in experiment [7], 1.21.

Regarding `C#Cc1cccc(Nc2ncnc3cc(OC)c(OC)cc23)c1`, the Activity in [1] and in experiment [2] was above 95% each time. This compound also returned an IC50 in the experiment “cells” above 100 µM. Besides, the Ratio is listed as 0.93 in experiment [3], 0.83 in [4] and 0.69 in experiment [5].

In the case of `COc1cc2nccc(Nc3cc(OC)c(OC)c(OC)c3)c2cc1OC`, the Activity in experiment [1] and in [2] was above 95% each time. The same compound came in with an IC50 in “cells” above 100 µM. Also, the Ratio in experiment [3] was 1.26; in experiment [4], 1.11; in experiment [5] it was 1.06.

As for `COc1cc2ncnc(Nc3ccc(OCc4cccc(F)c4)c(Cl)c3)c2cc1OC`, the Activity in experiment [1] and in experiment [2] was above 95% in each case. In addition, it took 1.1 µM to reach half-maximal inhibition in the experiment “cells” (IC50). Further, the Ratio in experiment [3] was 0.92; in experiment [4] it was 0.74; in [5], 0.8.

For `Oc1ccc2nccc(Nc3ccc(OCc4ccccc4)cc3)c2c1`, the result in [8] was inactive. This compound also yielded an IC50 in “cells” of 2.5 µM. Also, the Ratio in experiment [6] was determined as 0.86; in experiment [3] it was 0.66; in experiment [4], 0.42; in experiment [5], 0.37; in [7], 0.95.

On to `COCCOc1cc2ncnc(Nc3cc(OC)c(OC)c(OC)c3)c2cc1OCCOC`, for which the Activity in experiment [1] and in experiment [2] was above 95% in each case. This compound also registered an IC50 in “cells” above 100 µM. Further, the Ratio in experiment [3] turned out to be 1.02; in experiment [4], 0.96; in [5], 0.87.

With `COc1cc2ncnc(Nc3ccc(OCc4ccccc4)cc3)c2cc1OC`, the result in experiment [8] was inactive. Besides, the IC50 in the experiment “cells” was above 100 µM. The Ratio in experiment [6] was 1.04; in experiment [3], 0.83; in [4] it was 0.77; in experiment [5], 0.6; in [7], 1.04.

With `COc1ccc2c(Nc3ccc(NC(=O)c4ccc(C)cc4)c(O)c3)ccnc2c1`, the IC50 in the experiment “cells” turned out to be 4.7 µM. In addition, the Ratio in experiment [6] was 1.11; in [3], 1.09; in [4], 1.11; in experiment [5], 0.96; in experiment [7], 1.13.

Turning to `C#Cc1cccc(Nc2ccnc3cc(OCCOC)c(OCCOC)cc23)c1`, the Activity in [1] and in experiment [2] was above 95% throughout. The compound further showed an IC50 in “cells” above 100 µM. Besides, the Ratio worked out at 0.88 in [3], 0.79 in [4] and 0.58 in experiment [5].

Consider `Oc1ccc2c(Nc3ccc(OCc4ccc(F)cc4)cc3)ncnc2c1`, for which the outcome in experiment [8] was inactive. Further, in “cells”, the IC50 is above 100 µM. The Ratio was 1.01 in [6]; 0.9 in experiment [3]; 0.89 in [4]; 0.83 in [5]; 0.94 in experiment [7].

On to `COc1cc(Nc2ncnc3ccc(C(F)(F)F)cc23)cc(OC)c1OC`, for which the Activity in experiment [1] and in experiment [2] was above 95% in each case. Also, the IC50 in “cells” is above 100 µM. Further, the Ratio in [3] came to 1.25; in [4], 1.12; in experiment [5] it was 1.06.

`COc1cc2ncnc(Nc3cc(OC)c(OC)c(OC)c3)c2cc1OC`: the Activity in [1] and in experiment [2] was above 95% in each case. In “cells”, this compound yielded an IC50 above 100 µM. Besides, the Ratio is 1.03 in experiment [3], 1.01 in [4] and 0.94 in [5].

On to `COc1ccc2nccc(Nc3ccc(NC(=O)c4ccc(C)cc4)c(O)c3)c2c1`, for which the IC50 in “cells” worked out at 10 µM. Also, the Ratio in experiment [6] was 1.17; in [3], 1.14; in [4] it was 1.28; in experiment [5], 0.95; in experiment [7], 1.11.

For `Oc1cc2ncnc(Nc3ccc(OCc4ccccc4)cc3)c2cc1O`, the outcome in experiment [8] was inactive. This compound displayed an IC50 in the experiment “cells” of 8.8 µM. In addition, the Ratio in [6] is 0.93; in experiment [3] it was 0.91; in experiment [4] it was 0.76; in [5], 0.69; in [7] it was 0.95.

Turning to `Oc1cc2ncnc(Nc3ccc(OCc4ccc(F)cc4)cc3)c2cc1O`, the result in [8] was inactive. In addition, the IC50 in the experiment “cells” is above 100 µM. Further, the Ratio in experiment [6] was 1.14; in experiment [3] it was 1; in experiment [4], 0.89; in experiment [5] it was 0.76; in [7], 1.04.

For `COc1cc2nccc(Nc3ccc(OCc4cccc(F)c4)c(Cl)c3)c2cc1OC`, the Activity in [1] and in experiment [2] was above 95% throughout. Besides, the midpoint of inhibition in “cells”, the IC50, lay at 11 µM. The figures for the Ratio in experiment [3], in experiment [4] and in [5] were 0.78, 0.22 and 0.1, respectively.

`COc1cc2nccc(Nc3ccc(NC(=O)c4ccc(C(C)(C)C)cc4)c(O)c3)c2cc1OC` registered an IC50 in the experiment “cells” of 2.6 µM. Further, the Ratio is recorded as 1.12 in [6]; 1.06 in experiment [3]; 0.72 in experiment [4]; 0.25 in experiment [5]; 1.1 in [7].

Consider `COc1ccc2ncnc(Nc3ccc(OCc4ccccc4)cc3)c2c1`, for which the result in experiment [8] was inactive. In “cells”, this compound gave an IC50 above 100 µM. The Ratio in [6] came to 1.07; in [3] it was 0.89; in experiment [4] it was 0.83; in experiment [5], 0.62; in experiment [7] it was 1.04.

As to `COc1cc(Nc2ccnc3ccc(Br)cc23)cc(OC)c1OC`, the Activity in experiment [1] and in [2] was above 95% throughout. Moreover, in the experiment “cells”, the IC50 was above 100 µM. In addition, the Ratio in experiment [3] came out at 1.35; in experiment [4], 1.41; in experiment [5] it was 1.28.

In the case of `COc1cc2ncnc(Nc3ccc(F)c(Cl)c3)c2cc1OCCCN1CCOCC1`, in [8], the result was inactive.

As for `COc1cc2nccc(Nc3ccc(NC(=O)c4ccc(C)cc4)c(O)c3)c2cc1OC`, in “cells”, the IC50 was found to be 16 µM. Also, the Ratio in [6] worked out at 1.09; in experiment [3] it was 1.13; in [4] it was 1.05; in [5] it was 0.45; in experiment [7] it was 1.14.

On to `COc1cc2nccc(Nc3cccc(Br)c3)c2cc1OC`, for which the Activity in [1] and in experiment [2] was above 95% throughout. The compound further showed an IC50 in the experiment “cells” of 9.6 µM. The Ratio was determined as 1.03 in [3], 0.9 in [4] and 0.6 in [5].

With `COc1cc2ncc(C#N)c(Nc3cc(OC)c(OC)c(OC)c3)c2cc1OC`, the Activity in experiment [1] and in experiment [2] was above 95% in each case. Further, in “cells”, the IC50 was above 100 µM. The Ratio in experiment [3] worked out at 1.03; in [4] it was 1.01; in experiment [5], 0.97.

For the compound `C#Cc1cccc(Nc2ncnc3cc(OCCOC)c(OCCOC)cc23)c1`, in [8], the result was inactive.

As to `C#Cc1cccc(Nc2c(C#N)cnc3cc(OC)c(OC)cc23)c1`, the Activity in experiment [1] and in [2] was above 95% each time. In “cells”, this compound showed a 50% inhibitory concentration (IC50) above 100 µM. Further, the Ratio in experiment [3] is 1.08; in experiment [4] it was 1.03; in [5], 0.98.

For the compound `COc1cc2ncnc(Nc3cccc(Br)c3)c2cc1OC`, the Activity in experiment [1] and in experiment [2] was above 95% in each case. The IC50 in “cells” amounted to 3.9 µM. Besides, the Ratio in [3] came to 0.98; in [4], 0.71; in experiment [5], 0.65.

As to `COc1cc(Nc2ccnc3ccc(C(F)(F)F)cc23)cc(OC)c1OC`, the Activity in [1] and in [2] was above 95% each time. Moreover, the IC50 in the experiment “cells” is above 100 µM. In addition, the Ratio in [3] stood at 1.23; in [4], 1.14; in experiment [5], 1.21.
